The values that follow are results of earlier work, collected in US20200093949A1, “COMBINED ODOR ABSORPTION AND INSECT REPELLENT COMPOSITIONS, TREATMENTS, AND METHODS OF USE” (priority 2014, published 2020).

For this series, the system named is yellow fever mosquito. Conditions: compared with DEET.

With `CCC(C)OC(=O)N1CCCCC1CCO` (stereo not shown) [Picaridin, 2-(2-hydroxyethyl)-1-piperidine carboxylic acid 1-methylpropyl ester], the “time of protection of guinea pigs from bites, post application” value is “longer times”.
